This is an account of results in patent US9732131B2, “Identification and use of novopeptides for the treatment of cancer” (Calviri Inc., priority 2006, dated 2017).

One test relates to 4T1 tumor cells. The experiment in a line: Prophylactic genetic immunization, BALB/C-4T1 mouse transplant breast tumor model. The test is classed as in vivo. The note with it: three peptide components given together by genetic immunization at 7 and 13 weeks; challenge 5,000 4T1 cells; vs empty vector (FIG. 15). The procedure:
Primary genetic immunization was administered with the three peptide components (10 mice) or with empty vector (negative controls, 4 mice) at 7 weeks old and 13 weeks old. Three weeks after the last immunization, all mice were challenged with 5,000 4T1 tumor cells. Tumor size was measured each day after palpable tumors appeared. […] Error bars show standard error.

Test [1] concerns breast tumor driven by mutant rat Her2 gene. The experiment in a line: Prophylactic immunization in BALB-neuT transgenic breast cancer model. Format: in vivo. Particulars: BALB-neuT mice, genetic prime/boost + KLH-peptide boost; vs non-treated and negative control (FIGS. 13a, 13b). An excerpt:
From the candidate FS peptide sequences disclosed in Table 8 two candidates were selected for in vivo confirmation. The candidates chosen will be referred to herein as FS RBM (SEQ ID NO:232) and FS THAP2 (SEQ ID NO:238), these novopeptides having upstream in-frame portions that align with the mouse Rbm14 and Thap2 genes, respectively. […] The BALB-neuT mouse model is a transgenic mouse breast cancer model, in which all ten mammary glands of a female mouse will develop breast tumor around 20 weeks of age, driven by overexpression of a mutant rat Her2 gene.
FS RBM and FS THAP2 peptides were tested in vivo as candidate peptide components of a prophylactic anti-cancer vaccine. BALB-neuT mice were immunized at 4 to 6 weeks old (primary genetic immunization); 8 to 10 weeks old (boost genetic immunization) and 12 to 14 weeks old (boost peptide immunization). All genetic immunization had the same genetic adjuvant for each bullet for gene gun immunization: 250 ng mixed LTA-LTB/pCMVi and 2.5 μgCpG 2216. All mice received two shots at each ear by gene gun for each genetic immunization. At primary immunization, the vaccine group got two shots of bullets containing 100 ng (high dosage) or 20 ng (low dosage) mixed FS antigen plasmids per bullet; while negative group got two shots of 100 ng mixed empty plasmids for each shot. […]

A further test relates to 4T1 breast tumor cells. Put plainly: Prophylactic genetic immunization, 4T1 breast tumor challenge. Format: in vivo. Particulars: Balb/c mice, 3.2 ng FS 1-78 LEE + 1 μg pGM-CSF, boost, challenge 1×10^4 4T1 cells; vs pGM-CSF alone and FS 6-21 controls (FIG. 5). The text has this:
Immunization with a single FS-novopeptide identified based on one tumor type may be immunoprotective against a different tumor type in a different mouse strain. Disclosed herein is a procedure for such immunization. Immunization with novopeptides common to multiple types of tumors can result in cross-protection, obviating the requirement that a patient must develop a tumor before a personalized vaccine can be formulated, prepared and administered. Balb/c mice were immunized in the same manner as the C57BL6 mice in Example 2 above, with 3.2 ng of FS 1-78 LEE+1 μg of pGM-CSF, and boosted with the same gene vaccine after 2 weeks. One week after the boost, mice were challenged with 1×10^4 4 T1 breast tumor cells. Seventeen days after 4T1 challenge, tumors started to grow.

The test system of test [2] is B16 F10 melanoma tumor cells. The experiment in a line: Prophylactic genetic immunization (gene gun LEE + pGM-CSF), B16 F10 melanoma challenge. The test is classed as in vivo, C57BL6 mice.
In a further test the test system is B16 melanoma line. The experiment in a line: Therapeutic gene vaccine encoding SMC1A FS, B16 melanoma mouse tumor model. Particulars: B16 inoculated, gene vaccine one day later. The test is classed as in vivo, mice.
In test [3] the test system is serum antibodies of cancer patients. The experiment in a line: ELISA of cancer patient serum for reactivity with novopeptide. The test is classed as binding, human. The note with it: serum from 23 cancer patients, standard ELISA (FIG. 8). An excerpt: Disclosed herein are embodiments of methods for performing novopeptide immunological screens. For example, disclosed herein are embodiments of methods for immunologically screening for the existence of a B cell response to a particular novopeptide comprising assaying for the presence of antibodies reactive to that novopeptide in serum samples from individuals having a type of cancerous cells predicted to express the novopeptide, and for the absence, or presence below a prespecified titer, of such reactive antibodies in serum obtained from one or more individuals not having such cancer. The presence in sera of antibodies reactive to a given novopeptide may be detected and quantified by an ELISA assay in which the novopeptide is adsorbed onto a solid surface, serum is applied, and antibodies remaining bound to the novopeptides after washing are detected. […] However, in at least some individuals, a strong immune response develops late in the tumor progression process. Therefore, serum antibody reactivity to a candidate novopeptide, even if detected in the serum of only one or a few individuals having the cancer type in question, is strong evidence that the novopeptide is expressed in that cancer type.
Novopeptides in the FS database in association with particular tumor cell types were identified. […]
A general note: An ELISA detects its analyte on a solid surface through an enzyme-linked reagent.

Another test relates to SW480 tumor cells. The experiment in a line: CTL assay (Cr release) with CTLs activated against novopeptide. Format: cell-based, human. Particulars: MHC-matched SW480 cells pulsed with peptide vs unpulsed (FIG. 9). The text has this:
These CTL's may then be tested for reactivity against each of (1) cancerous cells, and (2) non-cancerous cells, each having an MHC or HLA type matching that of the MHC or HLA for which the CTL's are specific.
This is a standard Cr release assay that anyone skilled in the art would be able to do.

Method for B16 melanoma line: The FS was tested for therapeutic value as a vaccine in the mouse tumor model. The B16 melanoma line was inoculated into mice. One day later the mice were vaccinated with a gene vaccine encoding the FS.

Take “SEQ ID NO: 310: first peptide of Table 9, frameshift predicted from mouse microsatellite locus (TLCMEVMLRWNTRELGYLYLQLCFLNTHFLHTSQEEKLLTLGRFLTWTSRCGSFVIRPL; Synthetic or recombinant sequence)”: the “prophylactic inhibition of tumor progression (tumor size)” value with 4T1 tumor cells is on record as “effective in prophylactically inhibiting tumor progression”.
Same read-out and setting: the value for “SEQ ID NO: 311: second peptide of Table 9, frameshift predicted from mouse microsatellite locus (ICMSPPLLWATLQAPETTSAACKASYRPEGLYL; Synthetic or recombinant sequence)” was “effective in prophylactically inhibiting tumor progression”.
As to “FS THAP2: mouse novopeptide whose upstream in-frame portion aligns with the mouse Thap2 gene (FDFCTHIKSLVTFGLFLRGAGCSPSSFLL; Synthetic or recombinant sequence)”, the “inhibition of first tumor onset and tumor progression” value in test [1] is reported as “significant prophylactic protection”.
Regarding “SEQ ID NO: 312: third peptide of Table 9, frameshift predicted from mouse microsatellite locus (YFSCDKRCIKHYAGNKSLLTFSGY; Synthetic or recombinant sequence)”, the “prophylactic inhibition of tumor progression (tumor size)” value with 4T1 tumor cells was “effective in prophylactically inhibiting tumor progression”.
As for “IPRMQPQASAnhcqllkvmva* (LLMCQCQLYQPWMCKEYYRLL; Synthetic or recombinant peptide) [FS 1-78, frameshift novopeptide from B16-F10, 396 bp deletion in a zinc finger protein gene]”, the 4T1 tumor growth entry with 4T1 breast tumor cells is “significantly delayed and reduced 4T1 tumor growth”. The tumor growth result in test [2] (C57BL6 mice, gene gun FS 1-78 LEE + 1 μg pGM-CSF, boost 2 weeks later, challenge 1×10^5 B16 F10 cells, vs empty LEE and no immunization (FIG. 4)) was “tumor growth was markedly delayed”. The tumor volume entry in test [2] (highest dose (3.2 ng) of FS 1-78 LEE (FIG. 4)) was “tumor volume decreased after the already delayed rise”.
Take “NGSGCSGVYCHEEPQGEDSSV [FS SMC-1A, novopeptide from a frameshift of the SMC1A gene]”: the “therapeutic effect on tumor size progression” value in the test on B16 melanoma line (relative to control (FIG. 12a)) was “no therapeutic effect on tumor size progression”. Also, in the test with B16 melanoma line (relative to control (FIG. 12b)), the survival time entry is reported as “did not show significant improvement in survival time”.
As to “FS RBM: mouse novopeptide whose upstream in-frame portion aligns with the mouse Rbm14 gene (GRVIECDVVKGSCQDGEAVHWKSAPGGHRAGDPLTLRAVREGAGM; Synthetic or recombinant sequence)”, the “inhibition of first tumor onset and tumor progression” value in test [1] is given as “significant prophylactic protection”.
In the case of “AVLLMCQLYQpwmckeyyrll* (AVLLMCQLYQPWMCKEYYRLL; Synthetic or recombinant sequence) [FS 6-21, frameshift novopeptide, 95 bp deletion]”, in test [3], the “antibody reactivity in sera of cancer patients” value was “one cancer patient in 23”. In the test on SW480 tumor cells, the “CTL killing of tumor cells” value is listed as “able to kill MHC-matched tumor cells pulsed with FS 6-21 peptide”.
